What was measured:
[1] = biological target: His6-ERα298-554 WT (ERα ligand-binding domain) (Homo sapiens (Human), UniProt P03372); test: Test A: biochemical antagonist activity, LanthaScreen TR-FRET ERα coactivator assay, WT; conditions: protocol with 3 nM estradiol; read-out: Antagonism WT IC50
Description: (§1) Test A: Biochemical Antagonist Activity on Wild Type (WT) and Mutants
(§2) Estrogen Receptors Test A involves measuring the in vitro antagonist activity of the compounds of the invention on estrogen receptors.
(§3) The measurements of the antagonist activities were made using an estrogen receptor coactivator assay as described hereunder.
(§4) Antagonistic potency of compounds was evaluated using LanthaScreen® TR-FRET ERα Coactivator Assay (ThermoFisher) with modifications. […] The assay works in a homogeneous mix-and-read format. In a typical experiment, a 4 μL mixture of 0.5 nM His6-ERα298-554, 0.5 nM Tb-labeled His6 antibody, 250 nM PGC1a peptide, and 3 nM estradiol (or 10 nM estradiol) in 100 mM potassium phosphate, pH 7.4, 0.01% Tween-20, 0.02% NaN3, 5 mM DTT, was added to 40 nL test compound in DMSO and incubated overnight at room temperature. The TR-FRET 520:495 nm emission ratio was calculated and used to determine the IC50 value from a dose response curve fit to the 4-parameter logistic equation.

[2] = biological target: His6-ERα298-554 D538G mutant (ERα ligand-binding domain) (Homo sapiens (Human), UniProt P03372, D538G); test: Test A: biochemical antagonist activity, LanthaScreen TR-FRET ERα coactivator assay, D538G mutant; conditions: protocol with 3 nM estradiol; read-out: Antagonism D538G IC50
Description: as §1, §2, §3, §4

[3] = biological target: His6-ERα298-554 Y537S mutant (ERα ligand-binding domain) (Homo sapiens (Human), UniProt P03372, Y537S); test: Test A: biochemical antagonist activity, LanthaScreen TR-FRET ERα coactivator assay, Y537S mutant; conditions: protocol with 3 nM estradiol; read-out: Antagonism Y537S IC50
Description: as §1, §2, §3, §4

ERα in MCF7 cells = ERα in MCF7 cells (Homo sapiens (Human), UniProt P03372); test: Test C: estrogen receptor degradation activity, ERα in cell western assay in MCF7 cells; format: cell-based; conditions: for DC50: 4 hours post compound addition, ERα in cell western, read-out: Degradation IC50; for % Degradation at 3 μM: 4 hours, relative to fulvestrant
Description: Test C: Estrogen Receptor Degradation Activity
Test C involves measuring the in vitro degradation activity of the compounds of the invention.
The measurements of the degradation activities were made using abreast cancer cell ERα in cell western assay as described hereunder.
MCF7 cells (ATCC) were seeded in 384 wells microplate (collagen coated) at concentration of >9990 cells/30 μL per well in red phenol free MEM alpha medium (invitrogen) containing 5% charcoal dextran striped FBS. The following day, 9 points serial 1:5 dilution of each compound were added to the cells in 2.5 μL at final concentrations ranging from 3-0.000018 μM or 0.1 μM for fulvestrant (using as positive control). At 4 hours post compounds addition the cells were fixed by adding 25 μL of formalin (final concentration 5% formalin containing 0.1% triton) for 10 minutes at room temperature and then washed twice with PBS. Then, 50 μL of LI-COR blocking buffer containing 0.1% Triton was added to plate for 30 minutes at room temperature. LI-COR blocking buffer was removed and cells were incubated overnight at cold room with 50 μL anti-ER rabbit monoclonal antibody (Thermo scientific MA1-39540) diluted at 1:>999 in LI-COR blocking buffer containing 0.1% tween-20. Wells which were treated with blocking but no antibody were used as background control. Wells were washed twice with PBS (0.1% tween-20) and incubated at 37° C. for 60 minutes in LI-COR (0.1% tween-20) containing goat anti-rabbit antibody Alexa 488 (1:>999) and Syto-64 a DNA dye (2 μM final concentration). Cells were then washed 3 times in PBS and scanned in ACUMEN explorer (TTP-Labtech). Integrated intensities in the green fluorescence and red fluorescence were measured to determine the levels of ERα and DNA respectively.

Sequence of His6-ERα298-554 Y537S mutant (ERα ligand-binding domain) (P03372 298-554 Y537S): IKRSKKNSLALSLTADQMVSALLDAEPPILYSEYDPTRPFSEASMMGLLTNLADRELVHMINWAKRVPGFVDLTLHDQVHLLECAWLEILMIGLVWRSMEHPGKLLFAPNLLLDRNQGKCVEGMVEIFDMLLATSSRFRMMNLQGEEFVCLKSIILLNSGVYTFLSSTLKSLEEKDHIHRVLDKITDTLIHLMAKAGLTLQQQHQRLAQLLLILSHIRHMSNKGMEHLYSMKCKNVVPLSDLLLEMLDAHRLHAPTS
Sequence of ERα in MCF7 cells (P03372 whole entry): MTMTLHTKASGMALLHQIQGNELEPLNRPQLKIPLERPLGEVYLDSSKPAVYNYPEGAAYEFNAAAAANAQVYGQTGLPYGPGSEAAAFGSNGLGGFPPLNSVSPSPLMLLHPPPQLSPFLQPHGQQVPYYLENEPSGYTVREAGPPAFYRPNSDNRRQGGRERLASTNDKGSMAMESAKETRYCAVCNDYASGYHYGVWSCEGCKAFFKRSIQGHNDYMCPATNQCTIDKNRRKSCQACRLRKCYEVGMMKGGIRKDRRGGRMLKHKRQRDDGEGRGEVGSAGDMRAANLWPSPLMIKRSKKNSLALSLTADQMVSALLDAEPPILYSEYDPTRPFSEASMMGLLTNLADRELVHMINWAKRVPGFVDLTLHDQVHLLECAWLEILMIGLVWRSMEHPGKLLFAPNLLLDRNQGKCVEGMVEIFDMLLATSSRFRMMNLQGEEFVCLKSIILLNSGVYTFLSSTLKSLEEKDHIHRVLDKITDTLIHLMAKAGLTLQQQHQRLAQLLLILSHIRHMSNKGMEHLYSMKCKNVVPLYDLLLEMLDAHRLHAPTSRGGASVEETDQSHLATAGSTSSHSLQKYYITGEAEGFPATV
Sequence of His6-ERα298-554 D538G mutant (ERα ligand-binding domain) (P03372 298-554 D538G): as the sequence (P03372 298-554 Y537S) above, with S240Y, D241G counted along it
Sequence of His6-ERα298-554 WT (ERα ligand-binding domain) (P03372 298-554): as the sequence (P03372 298-554 Y537S) above, with S240Y counted along it

Structure (SMILES) | IC50 [1] [nM] | IC50 [2] [nM] | IC50 [3] [nM] | DC50 (ERα in MCF7 cells) [nM] | % Degradation at 3 μM (ERα in MCF7 cells) [%]
Oc1cccc(C2=C(c3ccc(O[C@H]4CCN(CCCF)C4)cc3)c3ccc(O)cc3SCC2)c1 [Example 158, 5-[4-[(3S)-1-(3-fluoropropyl)pyrrolidin-3-yl]oxyphenyl]-4-(3-hydroxyphenyl)-2,3-dihydro-1-benzothiepin-8-ol] | 1 | 4 | 3 | 0.2 | 88
Cc1ccc(C2=C(c3ccc(O[C@H]4CCN(CCCF)C4)cc3)c3cc(C)c(O)cc3OCC2)c(F)c1 [Example 140, 4-(2-fluoro-4-methyl-phenyl)-5-[4-[(3S)-1-(3-fluoropropyl)pyrrolidin-3-yl]oxyphenyl]-7-methyl-2,3-dihydro-1-benzoxepin-8-ol] | 36 | 644 | 542 | 3 | 85
Oc1cccc(C2=C(c3ccc(O[C@H]4CCN(CCCF)C4)cc3)c3ccc(O)cc3OCC2)c1 [Example 91, 5-[4-[(3S)-1-(3-fluoropropyl)pyrrolidin-3-yl]oxyphenyl]-4-(3-hydroxyphenyl)-2,3-dihydro-1-benzoxepin-8-ol] | 2 | 10 | 6 | 0.4 | 91
Cc1c(Cl)cccc1C1=C(c2ccc(O[C@H]3CCN(CCCF)C3)cc2)c2ccc(O)c(Cl)c2OCC1 [Example 109, 9-chloro-4-(3-chloro-2-methyl-phenyl)-5-[4-[(3S)-1-(3-fluoropropyl)pyrrolidin-3-yl]oxyphenyl]-2,3-dihydro-1-benzoxepin-8-ol] | 29 | 215 | 150 | 1 | 90
Cc1cc2c(cc1O)OCCC(c1cccc(Cl)c1C)=C2c1ccc(O[C@H]2CCN(CCCF)C2)cc1 [Example 135, 4-(3-chloro-2-methyl-phenyl)-5-[4-[(3S)-1-(3-fluoropropyl)pyrrolidin-3-yl]oxyphenyl]-7-methyl-2,3-dihydro-1-benzoxepin-8-ol] | 21 | 591 | 352 | 3 | 87
O=S1(=O)CCC(c2cccc(F)c2Cl)=C(c2ccc(O[C@H]3CCN(CCCF)C3)cc2)c2ccc(O)cc21 [Example 232, 4-(2-chloro-3-fluoro-phenyl)-5-[4-[(3S)-1-(3-fluoropropyl)pyrrolidin-3-yl]oxyphenyl]-1,1-dioxo-2,3-dihydro-1λ^6-benzothiepin-8-ol] | 16 | 99 | 78 | 0.2 | 95
Oc1ccc2c(c1)SCCC(c1ccc(Cl)c(F)c1)=C2c1ccc(O[C@H]2CCN(CCCF)C2)cc1 [Example 161, 4-(4-chloro-3-fluoro-phenyl)-5-[4-[(3S)-1-(3-fluoropropyl)pyrrolidin-3-yl]oxyphenyl]-2,3-dihydro-1-benzothiepin-8-ol] | 6 | 31 | 22 | 0.7 | 93
Cc1cc(C2=C(c3ccc(O[C@H]4CCN(CCCF)C4)cc3)c3ccc(O)cc3S(=O)(=O)CC2)ccc1Cl [Example 236, 4-(4-chloro-3-methyl-phenyl)-5-[4-[(3S)-1-(3-fluoropropyl)pyrrolidin-3-yl]oxyphenyl]-1,1-dioxo-2,3-dihydro-1λ^6-benzothiepin-8-ol] | 8 | 54 | 29 | 0.3 | 91
Cc1cc(C2=C(c3ccc(O[C@H]4CCN(CCCF)C4)cc3)c3ccc(O)cc3OCC2)ccc1Cl [Example 99, 4-(4-chloro-3-methyl-phenyl)-5-[4-[(3S)-1-(3-fluoropropyl)pyrrolidin-3-yl]oxyphenyl]-2,3-dihydro-1-benzoxepin-8-ol] | 5 | 36 | 25 | 0.7 | 89
Oc1ccc2c(c1F)OCCC(c1ccc3cc[nH]c3c1)=C2c1ccc(O[C@H]2CCN(CCCF)C2)cc1 [Example 131, 9-fluoro-5-[4-[(3S)-1-(3-fluoropropyl)pyrrolidin-3-yl]oxyphenyl]-4-(1H-indol-6-yl)-2,3-dihydro-1-benzoxepin-8-ol] | 19 | 340 | 276 | 3 | 83
Oc1ccc(C2=C(c3ccc(O[C@H]4CCN(CCCF)C4)cc3)c3cc(O)ccc3SCC2)cc1 [Example 177, 5-[4-[(3S)-1-(3-fluoropropyl)pyrrolidin-3-yl]oxyphenyl]-4-(4-hydroxyphenyl)-2,3-dihydro-1-benzothiepin-7-ol] | 4 | 41 | 29 | 0.2 | 75
Cc1ccc(C2=C(c3ccc(O[C@H]4CCN(CCCF)C4)cc3)c3cc(O)ccc3SCC2)c(F)c1 [Example 171, 4-(2-fluoro-4-methyl-phenyl)-5-[4-[(3S)-1-(3-fluoropropyl)pyrrolidin-3-yl]oxyphenyl]-2,3-dihydro-1-benzothiepin-7-ol] | 24 | 140 | 87 | 0.2 | 85
Cc1c(O)ccc2c1OCCC(c1cccc3[nH]ccc13)=C2c1ccc(O[C@H]2CCN(CCCF)C2)cc1 [Example 130, 5-[4-[(3S)-1-(3-fluoropropyl)pyrrolidin-3-yl]oxyphenyl]-4-(1H-indol-4-yl)-9-methyl-2,3-dihydro-1-benzoxepin-8-ol] | 70 | 1190 | 777 | 18 | 73
Cc1c(Cl)cccc1C1=C(c2ccc(O[C@H]3CCN(CCCF)C3)cc2)c2ccc(O)cc2S(=O)(=O)CC1 [Example 235, 4-(3-chloro-2-methyl-phenyl)-5-[4-[(3S)-1-(3-fluoropropyl)pyrrolidin-3-yl]oxyphenyl]-1,1-dioxo-2,3-dihydro-1λ^6-benzothiepin-8-ol] | 13 | 100 | 83 | 0.9 | 95
O=S1(=O)CCC(c2ccc(F)cc2Cl)=C(c2ccc(O[C@H]3CCN(CCCF)C3)cc2)c2ccc(O)cc21 [Example 229, 4-(2-chloro-4-fluoro-phenyl)-5-[4-[(3S)-1-(3-fluoropropyl)pyrrolidin-3-yl]oxyphenyl]-1,1-dioxo-2,3-dihydro-1λ^6-benzothiepin-8-ol] | 12 | 85 | 34 | 0.2 | 89
Cc1c(O)ccc2c1OCCC(c1ccc3c(c1)CCN3)=C2c1ccc(O[C@H]2CCN(CCCF)C2)cc1 [Example 118, 5-[4-[(3S)-1-(3-fluoropropyl)pyrrolidin-3-yl]oxyphenyl]-4-indolin-5-yl-9-methyl-2,3-dihydro-1-benzoxepin-8-ol] | 152 | 442 | 237 | 126 | 74
Cc1cc(F)ccc1C1=C(c2ccc(O[C@H]3CCN(CCCF)C3)cc2)c2ccc(O)cc2SCC1 [Example 165, 4-(4-fluoro-2-methyl-phenyl)-5-[4-[(3S)-1-(3-fluoropropyl)pyrrolidin-3-yl]oxyphenyl]-2,3-dihydro-1-benzothiepin-8-ol] | 3 | 11 | 8 | 0.2 | 90
Oc1ccc2c(c1)C(c1ccc(O[C@H]3CCN(CCCF)C3)cc1)=C(c1ccc(Cl)cc1F)CCS2 [Example 181, 4-(4-chloro-2-fluoro-phenyl)-5-[4-[(3S)-1-(3-fluoropropyl)pyrrolidin-3-yl]oxyphenyl]-2,3-dihydro-1-benzothiepin-7-ol] | 25 | 135 | 54 | 3 | 83
